Key:
Akt phosphorylation = assay: Akt Phosphorylation Assay (western blot), Panc-1; assay type: cell-based, human; settings: at 10 μM, * = activation
Experimental: Protocol for Western Akt Cell-Based Phosphorylation Assay
This assay is referred to as the “Akt Phosphorylation Assay” throughout this application.
Human tumor-derived pancreatic cancer cell line Panc-1 (expressing KRas G12D mutant) was purchased from American Type Culture Collection and grown in complete DMEM-High Glucose supplemented with penicillin (100 U/mL), streptomycin (100 μg/mL), and 10% heat-inactivated FBS at 37° C. in a humidified incubator with 5% CO2.
Method 1: Cells were plated at 350000 cells/well density in a 12-well plate, allowed 3 hours to adhere to the plate, then starved in the appropriate medium in the presence of 0.5% FBS overnight. The small molecules to be tested were added to the cells in the final concentration of 10 μM in the presence of 0.3% DMSO for 6 hours incubation at 37° C. Next, cells were stimulated with 1.5 ng/ml EGF for 15 minutes then cells were lysed with lysis buffer containing 1% Triton X-100, EDTA, and Halt™ Protease & Phosphatase Inhibitor Cocktail (Thermo Scientific). Protein concentration was assessed by BCA protein assay (Thermo Scientific). Phosphorylation level of Akt was determined by western blot.
Method 2: Cells were plated at 350000 cells/well density in a 12-well plate in 10% FBS. The next day small molecules to be tested were added to the cells in the final concentration of 10 μM in the presence of 0.3% DMSO for 6 hours incubation at 37° C. For IC50 value determination, serial dilutions of compounds were added to cells under the same conditions. Next, cells were lysed with lysis buffer containing 1% Triton X-100, EDTA, and Halt™ Protease & Phosphatase Inhibitor Cocktail (Thermo Scientific). Protein concentration was assessed by BCA protein assay (Thermo Scientific). Phosphorylation level of Akt was determined by western blot.
Western blot protocol: Equal amounts of protein (15-50 μg) were separated by SDS-PAGE and transferred to nitrocellulose membranes (Invitrogen by Thermo Fisher Scientific). The membrane was stained with Ponceau S Stain (Boston BioProducts) to verify uniform protein loading. Membranes were blocked with 10% milk and phosphorylation levels of Akt were assessed by incubating overnight at 4° C. with anti-phospho-Akt (Ser473) antibody (Cell Signaling) followed by HRP-conjugated secondary antibody (Jackson Immunoresearch, West Grove, PA). Bands were incubated in Amersham ECL Prime Western Blotting Detection Reagent (GE Healthcare) and visualized using the ChemiDoc MP imaging system (Bio-Rad).

TNF-alpha = TNF-alpha Quantification Assay (ELISA), LPS-stimulated RAW 264.7; assay type: cell-based; settings: Mus musculus, RAW264.7; at 10 μM; read-out: TNFα: % inh.
IL6 = assay: IL-6 Quantification Assay (ELISA), LPS-stimulated RAW 264.7; assay type: cell-based; set-up: inhibition: dose or concentration left out as unconfirmed; settings: Mus musculus, RAW264.7; read-out: IL-6: % inh.

| SMILES | % inh of Akt phosphorylation in Panc-1 (Akt phosphorylation) | inhibition at 10 µM (TNF-alpha) [%] | inhibition (IL6) [%] |
| --- | --- | --- | --- |
| COc1cncnc1Nc1nc(-c2nccn2C)nn2cc(-c3ccn(C)n3)c(C)c12 [Compound 107, N-(5-Methoxypyrimidin-4-yl)-5-methyl-2-(1-methyl-1H-imidazol-2-yl)-6-(1-methyl-1H-pyrazol-3-yl)pyrrolo[2,1-f][1,2,4]triazin-4-amine] | C* (46-84% activation) | 1 to 24 | 25 to 49 |
| CCc1nc(Nc2nc(-c3nccn3C)nn3cc(-c4ccn(C)n4)c(C)c23)nn1C [Compound 108, N-(5-Ethyl-1-methyl-1H-1,2,4-triazol-3-yl)-5-methyl-2-(1-methyl-1H-imidazol-2-yl)-6-(1-methyl-1H-pyrazol-3-yl)pyrrolo[2,1-f][1,2,4]triazin-4-amine] | D* (85-100% activation) | 0 | 50 to 74 |
| Cc1c(-c2ccn(C)n2)cn2nc(-c3nccn3C)nc(Nc3cn(C(C)C)nn3)c12 [Compound 109, N-(1-Isopropyl-1H-1,2,3-triazol-4-yl)-5-methyl-2-(1-methyl-1H-imidazol-2-yl)-6-(1-methyl-1H-pyrazol-3-yl)pyrrolo[2,1-f][1,2,4]triazin-4-amine] | D* (85-100% activation) | 0 | 50 to 74 |
| COc1cnc(Nc2nc(-c3nccn3C)nn3cc(-c4ccn(C)n4)c(C)c23)cn1 [Compound 110, N-(5-Methoxypyrazin-2-yl)-5-methyl-2-(1-methyl-1H-imidazol-2-yl)-6-(1-methyl-1H-pyrazol-3-yl)pyrrolo[2,1-f][1,2,4]triazin-4-amine] | C* (46-84% activation) | 1 to 24 | 1 to 24 |
| Cc1c(-c2ccn(C)n2)cn2nc(-c3nccn3C)nc(Nc3ccn(C4CC4)n3)c12 [Compound 111, N-(1-Cyclopropyl-1H-pyrazol-3-yl)-5-methyl-2-(1-methyl-1H-imidazol-2-yl)-6-(1-methyl-1H-pyrazol-3-yl)pyrrolo[2,1-f][1,2,4]triazin-4-amine] | D* (85-100% activation) | 50 to 74 | 75 to 100 |
| COc1cccnc1Nc1nc(-c2nccn2C)nn2cc(-c3ccn(C)n3)c(C)c12 [Compound 112, N-(3-Methoxypyridin-2-yl)-5-methyl-2-(1-methyl-1H-imidazol-2-yl)-6-(1-methyl-1H-pyrazol-3-yl)pyrrolo[2,1-f][1,2,4]triazin-4-amine] | D* (85-100% activation) | 0 | 25 to 49 |
| Cc1c(-c2ccn(C)n2)cn2nc(-c3nccn3C)nc(Nc3n[nH]c(C4CC4)n3)c12 [Compound 113, N-(5-Cyclopropyl-1H-1,2,4-triazol-3-yl)-5-methyl-2-(1-methyl-1H-imidazol-2-yl)-6-(1-methyl-1H-pyrazol-3-yl)pyrrolo[2,1-f][1,2,4]triazin-4-amine] | D* (85-100% activation) | 25 to 49 | 75 to 100 |
| COc1ccnc(Nc2nc(-c3nccn3C)nn3cc(-c4ccn(C)n4)c(C)c23)n1.Cl [Compound 114, N-(4-Methoxypyrimidin-2-yl)-5-methyl-2-(1-methyl-1H-imidazol-2-yl)-6-(1-methyl-1H-pyrazol-3-yl)pyrrolo[2,1-f][1,2,4]triazin-4-amine hydrochloride salt] | D* (85-100% activation) | 50 to 74 | 75 to 100 |
| Cc1c(-c2ccn(C)n2)cn2nc(-c3nccn3C)nc(Nc3ncccn3)c12.Cl [Compound 115, 5-Methyl-2-(1-methyl-1H-imidazol-2-yl)-6-(1-methyl-1H-pyrazol-3-yl)-N-(pyrimidin-2-yl)pyrrolo[2,1-f][1,2,4]triazin-4-amine hydrochloride salt] | D* (85-100% activation) | 0 | 50 to 74 |
| COc1cnc(Nc2nc(-c3nccn3C)nn3cc(-c4ccn(C)n4)c(C)c23)nc1.Cl [Compound 117, N-(5-Methoxypyrimidin-2-yl)-5-methyl-2-(1-methyl-1H-imidazol-2-yl)-6-(1-methyl-1H-pyrazol-3-yl)pyrrolo[2,1-f][1,2,4]triazin-4-amine hydrochloride salt] | B (26-49% inhibition) | 1 to 24 | 1 to 24 |
| Cc1c(-c2ccn(C)n2)cn2nc(-c3nccn3C)nc(Nc3nnco3)c12.Cl [Compound 119, N-(5-Methyl-2-(1-methyl-1H-imidazol-2-yl)-6-(1-methyl-1H-pyrazol-3-yl)pyrrolo[2,1-f][1,2,4]triazin-4-yl)-1,3,4-oxadiazol-2-amine hydrochloride salt] | D* (85-100% activation) | 25 to 49 | 50 to 74 |
| Cc1c(-c2ccn(C)n2)cn2nc(-c3nccn3C)nc(Nc3cnccn3)c12 [Compound 120, 5-Methyl-2-(1-methyl-1H-imidazol-2-yl)-6-(1-methyl-1H-pyrazol-3-yl)-N-(pyrazin-2-yl)pyrrolo[2,1-f][1,2,4]triazin-4-amine] | B* (26-49% activation) | 1 to 24 | 25 to 49 |
| Cc1c(-c2ccn(C(C)C)n2)cn2nc(-c3nccn3C)nc(Nc3nccc(OCCO)n3)c12 [Compound 121, 2-((2-((6-(1-Isopropyl-1H-pyrazol-3-yl)-5-methyl-2-(1-methyl-1H-imidazol-2-yl)pyrrolo[2,1-f][1,2,4]triazin-4-yl)amino)pyrimidin-4-yl)oxy)ethan-1-ol] | B* (26-49% activation) | 25 to 49 | 50 to 74 |
| COCCOc1cc(Nc2nc(-c3nccn3C)nn3cc(-c4ccn(C(C)C)n4)c(C)c23)ncn1 [Compound 122, 6-(1-Isopropyl-1H-pyrazol-3-yl)-N-(6-(2-methoxyethoxy)pyrimidin-4-yl)-5-methyl-2-(1-methyl-1H-imidazol-2-yl)pyrrolo[2,1-f][1,2,4]triazin-4-amine] | C* (46-84% activation) | 1 to 24 | 50 to 74 |
| Cc1c(-c2ccn(C(C)C)n2)cn2nc(-c3nccn3C)nc(Nc3cc(OCCN(C)C)ncn3)c12 [Compound 123, N-(6-(2-(Dimethylamino)ethoxy)pyrimidin-4-yl)-6-(1-isopropyl-1H-pyrazol-3-yl)-5-methyl-2-(1-methyl-1H-imidazol-2-yl)pyrrolo[2,1-f][1,2,4]triazin-4-amine] | B* (26-49% activation) | 25 to 49 | 75 to 100 |
| Cc1c(-c2ccn(C(C)C)n2)cn2nc(-c3nccn3C)nc(Nc3ncc[nH]3)c12 [Compound 125, N-(1H-Imidazol-2-yl)-6-(1-isopropyl-1H-pyrazol-3-yl)-5-methyl-2-(1-methyl-1H-imidazol-2-yl)pyrrolo[2,1-f][1,2,4]triazin-4-amine] | D* (85-100% activation) | 1 to 24 | 50 to 74 |
| COCCO[C@H]1C[C@H](Nc2nc(-c3nccn3C)nn3cc(-c4ccn(C)n4)c(C)c23)C1 [Compound 130, N-((1r,3r)-3-(2-Methoxyethoxy)cyclobutyl)-5-methyl-2-(1-methyl-1H-imidazol-2-yl)-6-(1-methyl-1H-pyrazol-3-yl)pyrrolo[2,1-f][1,2,4]triazin-4-amine] | D* (85-100% activation) | 1 to 24 | 0 |
| CO[C@H]1C[C@@H](Nc2nc(-c3nccn3C)nn3cc(-c4ccn(C)n4)c(C)c23)C1 [Compound 131, N-((1s,3s)-3-Methoxycyclobutyl)-5-methyl-2-(1-methyl-1H-imidazol-2-yl)-6-(1-methyl-1H-pyrazol-3-yl)pyrrolo[2,1-f][1,2,4]triazin-4-amine] | A (1-25% inhibition) | 1 to 24 | 0 |
| Cc1c(-c2ccn(C3CC3)n2)cn2nc(-c3nccn3C)nc(O)c12 [Compound 134, 6-(1-Cyclopropyl-1H-pyrazol-3-yl)-5-methyl-2-(1-methyl-1H-imidazol-2-yl)pyrrolo[2,1-f][1,2,4]triazin-4-ol] | A (1-25% inhibition) | 1 to 24 | 1 to 24 |

From patent US12459951B2, “Compounds that interact with RAS superfamily proteins for treatment of cancers, inflammatory diseases, rasopathies, and fibrotic disease” (SHY Therapeutics, LLC, priority 2022, dated 2025)
